Patent US20120129870A1, “PIPERAZINYL DERIVATIVES USEFUL AS MODULATORS OF THE NEUROPEPTIDE Y2 RECEPTOR” (priority 2007, published 2012)

Target: T1, NPY Y2 receptor (Homo sapiens, UniProt P49146)
T1 sequence (P49146 1-381): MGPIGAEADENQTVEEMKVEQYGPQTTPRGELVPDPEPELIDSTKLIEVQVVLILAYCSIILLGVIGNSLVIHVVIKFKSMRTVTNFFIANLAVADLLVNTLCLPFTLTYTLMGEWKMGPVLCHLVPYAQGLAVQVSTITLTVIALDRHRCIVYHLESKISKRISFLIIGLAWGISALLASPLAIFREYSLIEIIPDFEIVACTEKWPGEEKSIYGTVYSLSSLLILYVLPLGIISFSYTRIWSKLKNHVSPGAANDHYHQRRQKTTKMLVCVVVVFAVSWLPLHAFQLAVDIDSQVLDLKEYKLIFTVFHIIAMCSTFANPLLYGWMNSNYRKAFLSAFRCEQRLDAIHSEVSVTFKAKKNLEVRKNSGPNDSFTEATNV
Assay: Neuropeptide Y2 radioligand binding assay ([125I]PYY, KAN-Ts membranes)
Parameters: endogenous in cells; host or cells: KAN-Ts cells (membrane preparation)
Details: KAN-Ts membranes endogenously expressing Y2, [125I]PYY (80 pM), 1 h at rt
Description: KAN-Ts endogenously expressing Y2 receptors were used for the radioligand binding assay. Cells were grown to confluence on 150 cm^2 tissue culture plates, washed with phosphate-buffered saline (PBS), and scraped into 50 mL tubes. After centrifugation, the supernatant was aspirated, and the pellets frozen and stored at −80° C. Thawed pellets were homogenized with a polytron tissue grinder for 15 sec in 20 mM Tris-HCl, 5 mM EDTA. The homogenate was centrifuged at 800×g for 5 min and the collected supernatant was recentrifuged at 25000×g for 25 min. The resulting pellet was resuspended in binding buffer (20 mM HEPES, 120 mM NaCl, 0.22 mM KH2PO4, 1.3 mM CaCl2, 0.8 mM MgSO4). Membranes were incubated with [^125I]PYY (80 pM) in the presence or absence of test compound for 1 h at rt. The reaction was stopped by filtration through GF/C filter plates pre-soaked in 0.3% polyethylenimine and subsequently washed with Tris 50 mM, 5 mM EDTA buffer. Plates were dried for 1 h in a 55° C. oven, scintillation fluid was added and the radioactivity was counted in a Packard TopCount. Specific binding to the NPY receptor subtypes was determined by radioactivity that was bound in the presence of […]. Each binding experiment was repeated three to eight times, each in duplicate. IC50 values (i.e. concentration of unlabelled peptide or antagonist required to compete for 50% of specific binding to the radioligand) were calculated using the GraphPad Prism software (GraphPad Software Inc., San Diego Calif.) with a fit to a sigmoidal dose response curve. Apparent K, values were calculated as Ki=IC50/(1+C/KD), where C is concentration of the radioligand.

SMILES	IC50 [nM]
O=C(Nc1ccc(N2CCN(C(c3ccccc3)c3ccccc3)CC2)c(F)c1)[C@H]1CCOC1 (stereo in doubt) [Compound 14, Tetrahydro-furan-3-carboxylic acid [4-(4-benzhydryl-piperazin-1-yl)-3-fluoro-phenyl]-amide]	80
CC[C@@H](C)C(=O)Nc1ccc(N2CCN(C(c3ccccc3)c3ncco3)CC2)c(C#N)c1 (stereo in doubt) [Compound 93, N-{3-Cyano-4-[4-(oxazol-2-yl-phenyl-methyl)-piperazin-1-yl]-phenyl}-2-methyl-butyramide]	32
O=C(Nc1ccc(N2CCN(C(c3ccc(F)cc3)c3ncco3)CC2)c(F)c1)[C@@H]1CCOC1 (stereo in doubt) [Compound 127, Tetrahydro-furan-3-carboxylic acid (3-fluoro-4-{4-[(4-fluoro-phenyl)-oxazol-2-yl-methyl]-piperazin-1-yl}-phenyl)-amide]	> 5000
CCC(CC)C(=O)Nc1ccc(N2CCN(C(c3ccc(F)cc3)c3ccc(F)cc3)CC2)c(F)c1 [Compound 12, N-(4-{4-[Bis-(4-fluoro-phenyl)-methyl]-piperazin-1-yl}-3-fluoro-phenyl)-2-ethyl-butyramide]	330
CCC(CC)C(=O)Nc1ccc(N2CCN(C(c3ccccc3)c3ccc(Cl)cc3)CC2)c(F)c1 (stereo not drawn) [Compound 13, N-(4-{4-[(4-Chloro-phenyl)-phenyl-methyl]-piperazin-1-yl}-3-fluoro-phenyl)-2-ethyl-butyramide]	450
CCN(CC)C(=O)Cc1ccc(N2CCN(C(c3ccccc3)c3ccccc3)CC2)c(F)c1 [Compound 51, 2-[4-(4-Benzhydryl-piperazin-1-yl)-3-fluoro-phenyl]-N,N-diethyl-acetamide]	1550
CCC(CC)C(=O)Nc1ccc(N2CCN(C(c3ccccc3)C3CC3)CC2)c(F)c1 (stereo not drawn) [Compound 53, N-{4-[4-(Cyclopropyl-phenyl-methyl)-piperazin-1-yl]-3-fluoro-phenyl}-2-ethyl-butyramide]	78
CCC(CC)C(=O)Nc1ccc(N2CCN(C(c3ccccn3)c3ccccn3)CC2)c(F)c1 [Compound 55, N-{4-[4-(Di-pyridin-2-yl-methyl)-piperazin-1-yl]-3-fluoro-phenyl}-2-ethyl-butyramide]	54
CCC(CC)C(=O)Nc1ccc(N2CCN(C(c3ncco3)C3CC3)CC2)c(F)c1 (stereo not drawn) [Compound 66, N-{4-[4-(Cyclopropyl-oxazol-2-yl-methyl)-piperazin-1-yl]-3-fluoro-phenyl}-2-ethyl-butyramide]	1500
Cc1cc(NC(=O)C2CCC2)ccc1N1CCN(C(c2ccccc2)c2ncco2)CC1 (stereo not drawn) [Compound 76, Cyclobutanecarboxylic acid {3-methyl-4-[4-(oxazol-2-yl-phenyl-methyl)-piperazin-1-yl]-phenyl}-amide]	1400
CCC(CC)C(=O)Nc1ccc(N2CCN(C(c3ccccc3)C3CCC3)CC2)c(F)c1 (stereo not drawn) [Compound 78, N-{4-[4-(Cyclobutyl-phenyl-methyl)-piperazin-1-yl]-3-fluoro-phenyl}-2-ethyl-butyramide]	53
CCC(CC)C(=O)Nc1ccc(N2CCN(C(c3ccccc3)C3CCCC3)CC2)c(F)c1 (stereo not drawn) [Compound 83, N-{4-[4-(Cyclopentyl-phenyl-methyl)-piperazin-1-yl]-3-fluoro-phenyl}-2-ethyl-butyramide]	200
CCC(CC)C(=O)Nc1ccc(N2CCN(C(c3ccc(OC)cc3)C3CC3)CC2)c(F)c1 (stereo not drawn) [Compound 84, N-(4-{4-[Cyclopropyl-(4-methoxy-phenyl)-methyl]-piperazin-1-yl}-3-fluoro-phenyl)-2-ethyl-butyramide]	290
CCC(CC)C(=O)Nc1ccc(N2CCN(C(c3ccccc3)c3ncco3)CC2)c(C#N)c1 (stereo not drawn) [Compound 86, N-{3-Cyano-4-[4-(oxazol-2-yl-phenyl-methyl)-piperazin-1-yl]-phenyl}-2-ethyl-butyramide]	5
CC(C)C(=O)Nc1ccc(N2CCN(C(c3ccccc3)c3ncco3)CC2)c(C#N)c1 (stereo not drawn) [Compound 87, N-{3-Cyano-4-[4-(oxazol-2-yl-phenyl-methyl)-piperazin-1-yl]-phenyl}-isobutyramide]	54
N#Cc1cc(NC(=O)C2CCC2)ccc1N1CCN(C(c2ccccc2)c2ncco2)CC1 (stereo not drawn) [Compound 95, Cyclobutanecarboxylic acid {3-cyano-4-[4-(oxazol-2-yl-phenyl-methyl)-piperazin-1-yl]-phenyl}-amide]	100

Continued, values first:

IC50 [nM]	SMILES
340	O=C(Nc1ccc(N2CCN(C(c3ccccc3)c3ncco3)CC2)c(F)c1)C1CCCC1 (single isomer, unassigned) [Compound 126, Cyclopentanecarboxylic acid {3-fluoro-4-[4-(oxazol-2-yl-phenyl-methyl)-piperazin-1-yl]-phenyl}-amide]
270	O=C(Nc1ccc(N2CCN(C(c3ccccc3)c3ncco3)CC2)c(F)c1)[C@@H]1CCOC1 (stereo in doubt) [Compound 92, Tetrahydro-furan-3-carboxylic acid {3-fluoro-4-[4-(oxazol-2-yl-phenyl-methyl)-piperazin-1-yl]-phenyl}-amide]
1200	CCC(CC)NC(=O)c1ccc(N2CCN(C(c3ccccc3)c3ncco3)CC2)c(F)c1 (stereo not drawn) [Compound 46, N-(1-Ethyl-propyl)-3-fluoro-4-[4-(oxazol-2-yl-phenyl-methyl)-piperazin-1-yl]-benzamide]
> 10000	O=C(NC1CCCC1)c1ccc(N2CCN(C(c3ccccc3)c3ncco3)CC2)c(F)c1 (stereo not drawn) [Compound 49, N-Cyclopentyl-3-fluoro-4-[4-(oxazol-2-yl-phenyl-methyl)-piperazin-1-yl]-benzamide]
> 10000	Cc1cccnc1Nc1ccc(N2CCN(C(c3ccccc3)c3ncco3)CC2)c(F)c1 (stereo not drawn) [Compound 57, {3-Fluoro-4-[4-(oxazol-2-yl-phenyl-methyl)-piperazin-1-yl]-phenyl}-(3-methyl-pyridin-2-yl)-amine]
> 10000	Cn1ccnc1Nc1ccc(N2CCN(C(c3ccccc3)c3ncco3)CC2)c(F)c1 (stereo not drawn) [Compound 58, {3-Fluoro-4-[4-(oxazol-2-yl-phenyl-methyl)-piperazin-1-yl]-phenyl}-(1-methyl-1H-imidazol-2-yl)-amine]
> 10000	Cc1ccnc(Nc2ccc(N3CCN(C(c4ccccc4)c4ncco4)CC3)c(F)c2)n1 (stereo not drawn) [Compound 61, {3-Fluoro-4-[4-(oxazol-2-yl-phenyl-methyl)-piperazin-1-yl]-phenyl}-(4-methyl-pyrimidin-2-yl)-amine]
4700	Cc1cccc(Nc2ccc(N3CCN(C(c4ccccc4)c4ncco4)CC3)c(F)c2)n1 (stereo not drawn) [Compound 62, {3-Fluoro-4-[4-(oxazol-2-yl-phenyl-methyl)-piperazin-1-yl]-phenyl}-(6-methyl-pyridin-2-yl)-amine]
710	Cc1ccccc1Nc1ccc(N2CCN(C(c3ccccc3)c3ncco3)CC2)c(F)c1 (stereo not drawn) [Compound 63, {3-Fluoro-4-[4-(oxazol-2-yl-phenyl-methyl)-piperazin-1-yl]-phenyl}-o-tolyl-amine]
170	CCC(CC)C(=O)Nc1ccc(N2CCN(C(c3ccccc3)c3nccn3C)CC2)c(F)c1 (stereo not drawn) [Compound 64, 2-Ethyl-N-(3-fluoro-4-{4-[(1-methyl-1H-imidazol-2-yl)-phenyl-methyl]-piperazin-1-yl}-phenyl)-butyramide]
320	CC(C)C(=O)Nc1ccc(N2CCN(C(c3ccccc3)c3ncco3)CC2)c(F)c1 (stereo not drawn) [Compound 72, N-{3-Fluoro-4-[4-(oxazol-2-yl-phenyl-methyl)-piperazin-1-yl]-phenyl}-isobutyramide]
180	O=C(Nc1ccc(N2CCN(C(c3ccccc3)c3ncco3)CC2)c(F)c1)C1CCC1 (stereo not drawn) [Compound 73, Cyclobutanecarboxylic acid {3-fluoro-4-[4-(oxazol-2-yl-phenyl-methyl)-piperazin-1-yl]-phenyl}-amide]
2600	Cc1cc(NC(=O)C(C)C)ccc1N1CCN(C(c2ccccc2)c2ncco2)CC1 (stereo not drawn) [Compound 74, N-{3-Methyl-4-[4-(oxazol-2-yl-phenyl-methyl)-piperazin-1-yl]-phenyl}-isobutyramide]
1700	Cc1cc(NC(=O)C2CC2)ccc1N1CCN(C(c2ccccc2)c2ncco2)CC1 (stereo not drawn) [Compound 81, Cyclopropanecarboxylic acid {3-methyl-4-[4-(oxazol-2-yl-phenyl-methyl)-piperazin-1-yl]-phenyl}amide]
